Experimental data taken from ChEMBL document CHEMBL3862033 (J Med Chem, 2016).

Assays:
[1] = biological target: T1, 5-hydroxytryptamine receptor 2C (Homo sapiens) (UniProt P28335); assay: Displacement of [3H]mesulergine from human 5-HT2CR expressed in Flp-In HEK cell membranes at 10 uM incubated for 90 mins under dark condition by microbeta scintillation counting method relative to control; conditions: HEK293
T1 sequence (whole entry): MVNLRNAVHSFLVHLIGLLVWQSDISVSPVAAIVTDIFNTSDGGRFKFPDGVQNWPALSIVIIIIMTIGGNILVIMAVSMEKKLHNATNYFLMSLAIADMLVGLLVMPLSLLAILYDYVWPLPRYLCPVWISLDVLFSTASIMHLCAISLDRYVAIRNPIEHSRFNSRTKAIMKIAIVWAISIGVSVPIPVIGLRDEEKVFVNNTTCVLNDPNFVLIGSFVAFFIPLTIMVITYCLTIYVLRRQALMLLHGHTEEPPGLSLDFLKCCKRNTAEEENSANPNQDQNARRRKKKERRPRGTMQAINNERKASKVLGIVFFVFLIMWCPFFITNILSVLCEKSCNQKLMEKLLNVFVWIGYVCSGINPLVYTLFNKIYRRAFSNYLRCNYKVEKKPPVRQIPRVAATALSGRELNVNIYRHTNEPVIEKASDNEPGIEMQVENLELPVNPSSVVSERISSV

[2] = biological target: T2, 5-hydroxytryptamine receptor 3A (Homo sapiens) (UniProt P46098); assay: Displacement of [3H]GR65630 from human 5-HT3 receptor expressed in HEK-T cell membranes at 10 uM incubated for 90 mins under dark condition by microbeta scintillation counting method relative to control
T2 sequence (whole entry): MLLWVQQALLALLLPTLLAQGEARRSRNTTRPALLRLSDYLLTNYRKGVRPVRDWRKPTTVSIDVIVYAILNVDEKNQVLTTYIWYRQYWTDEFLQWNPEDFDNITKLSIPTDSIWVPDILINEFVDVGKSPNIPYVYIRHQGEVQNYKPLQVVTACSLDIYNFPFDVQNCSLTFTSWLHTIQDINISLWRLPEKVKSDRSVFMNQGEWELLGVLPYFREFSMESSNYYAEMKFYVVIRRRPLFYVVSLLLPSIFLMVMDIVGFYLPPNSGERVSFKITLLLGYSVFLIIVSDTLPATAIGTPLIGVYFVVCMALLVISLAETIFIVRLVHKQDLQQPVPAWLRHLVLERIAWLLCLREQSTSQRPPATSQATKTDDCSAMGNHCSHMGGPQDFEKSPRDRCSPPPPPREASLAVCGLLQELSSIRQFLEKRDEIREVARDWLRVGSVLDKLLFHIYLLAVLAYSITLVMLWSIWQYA

[3] = biological target: T3, 5-hydroxytryptamine receptor 2A (Homo sapiens, UniProt P28223); assay: Displacement of [3H]ketanserin from human 5-HT2A receptor expressed in HEK-T cell membranes at 10 uM incubated for 90 mins under dark condition by microbeta scintillation counting method relative to control
T3 sequence (P28223 whole entry): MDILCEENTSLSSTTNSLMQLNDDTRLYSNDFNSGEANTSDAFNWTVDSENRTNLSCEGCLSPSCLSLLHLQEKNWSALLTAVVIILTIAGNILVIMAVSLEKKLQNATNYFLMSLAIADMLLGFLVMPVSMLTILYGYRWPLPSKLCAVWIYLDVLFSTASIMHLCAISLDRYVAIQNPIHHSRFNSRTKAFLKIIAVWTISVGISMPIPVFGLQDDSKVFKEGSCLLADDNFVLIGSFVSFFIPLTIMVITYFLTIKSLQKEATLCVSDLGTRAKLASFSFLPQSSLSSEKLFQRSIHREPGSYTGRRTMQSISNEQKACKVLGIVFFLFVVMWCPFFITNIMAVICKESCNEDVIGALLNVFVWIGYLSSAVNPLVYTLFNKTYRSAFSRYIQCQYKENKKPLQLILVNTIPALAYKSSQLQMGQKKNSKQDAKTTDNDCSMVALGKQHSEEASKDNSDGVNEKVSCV

[4] = biological target: 5-hydroxytryptamine receptor 1E (Homo sapiens) (UniProt P28566); assay: Displacement of [3H]5-HT from human 5-HT1E receptor expressed in HEK cell membranes at 10 uM incubated for 90 mins under dark condition by microbeta scintillation counting method relative to control; conditions: HEK293
Sequence of 5-hydroxytryptamine receptor 1E (Homo sapiens) (P28566 whole entry): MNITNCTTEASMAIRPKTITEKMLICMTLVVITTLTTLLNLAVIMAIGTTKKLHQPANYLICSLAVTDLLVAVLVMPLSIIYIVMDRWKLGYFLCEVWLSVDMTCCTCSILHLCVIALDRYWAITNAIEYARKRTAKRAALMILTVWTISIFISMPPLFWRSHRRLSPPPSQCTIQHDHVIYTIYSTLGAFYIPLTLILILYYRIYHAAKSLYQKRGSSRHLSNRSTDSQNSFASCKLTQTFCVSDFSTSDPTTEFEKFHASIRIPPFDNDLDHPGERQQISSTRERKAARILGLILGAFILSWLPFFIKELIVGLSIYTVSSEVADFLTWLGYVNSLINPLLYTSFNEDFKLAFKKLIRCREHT

[5] = biological target: 5-hydroxytryptamine receptor 4 (Homo sapiens) (UniProt Q13639); assay: Displacement of [3H]GR113808 from human 5-HT4 receptor at 10 uM incubated for 90 mins under dark condition by microbeta scintillation counting method relative to control
Sequence of 5-hydroxytryptamine receptor 4 (Homo sapiens) (Q13639 whole entry): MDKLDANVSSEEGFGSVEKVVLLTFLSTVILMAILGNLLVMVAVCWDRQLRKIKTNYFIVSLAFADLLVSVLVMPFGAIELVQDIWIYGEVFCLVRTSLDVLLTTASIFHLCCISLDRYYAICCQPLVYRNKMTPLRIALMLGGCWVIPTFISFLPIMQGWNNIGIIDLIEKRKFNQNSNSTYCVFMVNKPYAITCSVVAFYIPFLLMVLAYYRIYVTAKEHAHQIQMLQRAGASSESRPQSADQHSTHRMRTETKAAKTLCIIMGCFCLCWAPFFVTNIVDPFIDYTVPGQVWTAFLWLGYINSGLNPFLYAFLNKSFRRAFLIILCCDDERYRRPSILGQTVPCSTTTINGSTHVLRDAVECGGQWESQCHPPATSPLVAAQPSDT

[6] = biological target: 5-hydroxytryptamine receptor 1D (Homo sapiens) (UniProt P28221); assay: Displacement of [3H]5-CT from human 5-HT1D receptor expressed in HEK-T cell membranes at 10 uM incubated for 90 mins under dark condition by microbeta scintillation counting method relative to control
Sequence of 5-hydroxytryptamine receptor 1D (Homo sapiens) (P28221 whole entry): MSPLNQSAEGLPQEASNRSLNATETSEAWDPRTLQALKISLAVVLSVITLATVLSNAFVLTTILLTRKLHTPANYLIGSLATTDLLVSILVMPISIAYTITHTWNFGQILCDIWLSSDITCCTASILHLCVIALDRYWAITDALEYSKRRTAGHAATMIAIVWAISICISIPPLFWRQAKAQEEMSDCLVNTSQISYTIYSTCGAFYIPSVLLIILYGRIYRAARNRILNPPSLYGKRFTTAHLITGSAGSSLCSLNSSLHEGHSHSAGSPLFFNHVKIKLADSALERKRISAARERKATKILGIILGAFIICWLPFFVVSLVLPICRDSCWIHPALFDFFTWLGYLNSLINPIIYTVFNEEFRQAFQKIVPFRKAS

[7] = biological target: 5-hydroxytryptamine receptor 6 (Homo sapiens) (UniProt P50406); assay: Displacement of [3H]LSD from human 5-HT6 receptor expressed in HEK cell membranes at 10 uM incubated for 90 mins under dark condition by microbeta scintillation counting method relative to control; conditions: HEK293
Sequence of 5-hydroxytryptamine receptor 6 (Homo sapiens) (P50406 whole entry): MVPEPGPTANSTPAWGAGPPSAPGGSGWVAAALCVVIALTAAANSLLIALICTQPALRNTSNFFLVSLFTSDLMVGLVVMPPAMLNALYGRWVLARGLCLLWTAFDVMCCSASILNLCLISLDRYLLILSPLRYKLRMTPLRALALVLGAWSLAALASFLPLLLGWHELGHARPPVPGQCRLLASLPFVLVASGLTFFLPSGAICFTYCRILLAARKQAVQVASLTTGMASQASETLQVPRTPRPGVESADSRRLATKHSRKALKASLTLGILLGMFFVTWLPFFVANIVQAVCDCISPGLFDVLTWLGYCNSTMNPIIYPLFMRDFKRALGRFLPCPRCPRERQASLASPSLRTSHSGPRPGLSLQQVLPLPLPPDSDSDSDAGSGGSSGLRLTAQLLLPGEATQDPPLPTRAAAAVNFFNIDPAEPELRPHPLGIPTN

[8] = biological target: 5-hydroxytryptamine receptor 5A (Homo sapiens) (UniProt P47898); assay: Displacement of [3H]LSD from human 5-HT5A receptor expressed in Flp-In-CHO cell membranes incubated for 90 mins under dark condition by microbeta scintillation counting method relative to control; set-up: concentration or dose not given beside the values
Sequence of 5-hydroxytryptamine receptor 5A (Homo sapiens) (P47898 whole entry): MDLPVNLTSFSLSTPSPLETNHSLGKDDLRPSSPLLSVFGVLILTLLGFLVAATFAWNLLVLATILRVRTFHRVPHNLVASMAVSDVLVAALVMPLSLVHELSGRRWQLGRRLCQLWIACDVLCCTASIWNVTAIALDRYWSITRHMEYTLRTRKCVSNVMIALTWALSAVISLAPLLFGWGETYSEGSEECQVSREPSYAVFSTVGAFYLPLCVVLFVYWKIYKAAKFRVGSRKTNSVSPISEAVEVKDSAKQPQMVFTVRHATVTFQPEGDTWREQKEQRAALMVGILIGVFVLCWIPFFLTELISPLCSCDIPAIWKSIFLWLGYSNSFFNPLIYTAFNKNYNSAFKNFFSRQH

[9] = biological target: T3, 5-hydroxytryptamine receptor 2A; assay: Displacement of [3H]ketanserin from human 5-HT2A receptor expressed in HEK-T cell membranes incubated for 90 mins under dark condition by microbeta scintillation counting method
[10] = Displacement of [3H]DTG from sigma2 receptor in rat PC12 cells after 90 mins by microbeta scintillation counting method; type: cell-based; conditions: pc-12
[11] = biological target: 5-hydroxytryptamine receptor 2B (Homo sapiens, UniProt P41595); conditions: HEK293, at 10 µM
Sequence of 5-hydroxytryptamine receptor 2B (P41595 whole entry): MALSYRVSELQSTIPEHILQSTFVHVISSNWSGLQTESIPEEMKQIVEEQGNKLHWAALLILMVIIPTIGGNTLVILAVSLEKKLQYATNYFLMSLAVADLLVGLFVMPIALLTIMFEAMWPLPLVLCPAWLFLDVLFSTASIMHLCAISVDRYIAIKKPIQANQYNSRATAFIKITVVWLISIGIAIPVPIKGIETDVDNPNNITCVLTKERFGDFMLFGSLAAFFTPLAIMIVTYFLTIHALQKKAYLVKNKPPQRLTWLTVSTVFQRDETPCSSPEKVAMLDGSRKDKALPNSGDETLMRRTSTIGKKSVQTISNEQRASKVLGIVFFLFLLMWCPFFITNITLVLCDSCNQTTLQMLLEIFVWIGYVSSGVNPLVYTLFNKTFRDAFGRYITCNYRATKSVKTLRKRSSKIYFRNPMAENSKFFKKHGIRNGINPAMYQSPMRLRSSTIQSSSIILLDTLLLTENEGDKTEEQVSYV

[12] = biological target: T4, 5-hydroxytryptamine receptor 1A (Homo sapiens) (UniProt P08908); assay: Displacement of [3H]WAY100635 from human 5-HT1AR expressed in CHO cell membranes at 10 uM incubated for 90 mins under dark condition by microbeta scintillation counting method relative to control
T4 sequence (whole entry): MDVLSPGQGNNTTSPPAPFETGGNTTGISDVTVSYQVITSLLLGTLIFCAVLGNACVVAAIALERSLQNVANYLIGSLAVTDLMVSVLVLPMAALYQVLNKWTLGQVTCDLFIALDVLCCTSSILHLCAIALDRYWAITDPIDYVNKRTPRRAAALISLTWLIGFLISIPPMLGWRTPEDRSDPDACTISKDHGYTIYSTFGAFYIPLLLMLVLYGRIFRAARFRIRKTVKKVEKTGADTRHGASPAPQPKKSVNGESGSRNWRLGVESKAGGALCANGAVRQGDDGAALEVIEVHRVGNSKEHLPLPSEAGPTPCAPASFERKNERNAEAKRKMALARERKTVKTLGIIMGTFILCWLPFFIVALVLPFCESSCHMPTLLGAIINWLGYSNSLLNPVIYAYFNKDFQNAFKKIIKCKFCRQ

[13] = biological target: 5-hydroxytryptamine receptor 1B (Homo sapiens) (UniProt P28222); assay: Displacement of [3H]5-CT from human 5-HT1BR expressed in HEK cell membranes at 10 uM incubated for 90 mins under dark condition by microbeta scintillation counting method relative to control; conditions: HEK293
Sequence of 5-hydroxytryptamine receptor 1B (Homo sapiens) (P28222 whole entry): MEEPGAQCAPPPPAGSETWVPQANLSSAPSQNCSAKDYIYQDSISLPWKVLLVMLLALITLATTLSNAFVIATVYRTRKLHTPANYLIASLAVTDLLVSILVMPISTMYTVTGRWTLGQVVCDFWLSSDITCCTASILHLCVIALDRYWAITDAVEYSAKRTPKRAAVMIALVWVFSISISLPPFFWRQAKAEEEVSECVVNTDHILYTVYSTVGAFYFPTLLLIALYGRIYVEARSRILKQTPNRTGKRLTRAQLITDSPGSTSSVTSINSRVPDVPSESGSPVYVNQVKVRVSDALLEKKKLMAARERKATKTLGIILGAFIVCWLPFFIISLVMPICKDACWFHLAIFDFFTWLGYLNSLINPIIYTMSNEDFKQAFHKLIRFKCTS

[14] = biological target: 5-hydroxytryptamine receptor 7 (Homo sapiens) (UniProt P34969); assay: Displacement of [3H]LSD from human 5-HT7A receptor expressed in HEK cell membranes at 10 uM incubated for 90 mins under dark condition by microbeta scintillation counting method relative to control; conditions: HEK293
Sequence of 5-hydroxytryptamine receptor 7 (Homo sapiens) (P34969 whole entry): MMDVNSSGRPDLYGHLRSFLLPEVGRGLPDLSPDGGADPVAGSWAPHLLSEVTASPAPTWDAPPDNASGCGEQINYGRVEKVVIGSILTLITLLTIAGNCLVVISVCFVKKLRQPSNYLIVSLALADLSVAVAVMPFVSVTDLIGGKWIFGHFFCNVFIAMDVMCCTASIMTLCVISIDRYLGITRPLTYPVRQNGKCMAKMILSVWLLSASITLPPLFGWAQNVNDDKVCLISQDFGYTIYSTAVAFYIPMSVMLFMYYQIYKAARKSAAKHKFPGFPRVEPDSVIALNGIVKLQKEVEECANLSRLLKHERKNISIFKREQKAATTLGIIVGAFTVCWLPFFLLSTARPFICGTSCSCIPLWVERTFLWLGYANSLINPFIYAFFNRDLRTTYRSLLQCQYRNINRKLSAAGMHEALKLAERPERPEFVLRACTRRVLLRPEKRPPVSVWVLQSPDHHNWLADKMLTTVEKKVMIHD

[15] = biological target: T5, 5-hydroxytryptamine receptor 2C (Homo sapiens, UniProt P28335); assay: Displacement of [3H]mesulergine from human 5-HT2CR expressed in Flp-In HEK cell membranes incubated for 90 mins under dark condition by microbeta scintillation counting method; set-up: species or system HEK293
T5 sequence (P28335 whole entry): T1 sequence (whole entry)

Adenosine receptor A2a = Adenosine receptor A2a (Homo sapiens, UniProt P29274); assay: Displacement of [3 H]2-[p-(2-carboxyethyl)phenyl-ethylamino]-5'-N-ethylcarboxamidoadenosine from recombinant human adenosine receptor A2A expressed in HEK293 cell membranes after 60 mins by liquid scintillation counting method
Sequence of Adenosine receptor A2a (P29274 whole entry): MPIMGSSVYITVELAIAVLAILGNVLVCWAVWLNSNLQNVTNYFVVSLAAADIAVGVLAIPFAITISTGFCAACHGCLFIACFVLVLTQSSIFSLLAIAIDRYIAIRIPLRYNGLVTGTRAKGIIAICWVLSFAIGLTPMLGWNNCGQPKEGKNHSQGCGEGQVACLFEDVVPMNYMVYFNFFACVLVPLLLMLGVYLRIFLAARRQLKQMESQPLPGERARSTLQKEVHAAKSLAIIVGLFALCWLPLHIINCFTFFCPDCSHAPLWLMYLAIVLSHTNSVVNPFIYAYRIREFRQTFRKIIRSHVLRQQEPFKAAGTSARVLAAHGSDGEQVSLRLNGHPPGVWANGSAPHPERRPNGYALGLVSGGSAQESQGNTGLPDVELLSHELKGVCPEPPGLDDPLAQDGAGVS

Adenosine receptor A1 = biological target: T6, Adenosine receptor A1 (Homo sapiens, UniProt P30542); assay: Displacement of [3H]N6-phenylisopropyladenosine from recombinant human A1AR expressed in CHO cell membranes after 60 mins by liquid scintillation counting method
T6 sequence (P30542 whole entry): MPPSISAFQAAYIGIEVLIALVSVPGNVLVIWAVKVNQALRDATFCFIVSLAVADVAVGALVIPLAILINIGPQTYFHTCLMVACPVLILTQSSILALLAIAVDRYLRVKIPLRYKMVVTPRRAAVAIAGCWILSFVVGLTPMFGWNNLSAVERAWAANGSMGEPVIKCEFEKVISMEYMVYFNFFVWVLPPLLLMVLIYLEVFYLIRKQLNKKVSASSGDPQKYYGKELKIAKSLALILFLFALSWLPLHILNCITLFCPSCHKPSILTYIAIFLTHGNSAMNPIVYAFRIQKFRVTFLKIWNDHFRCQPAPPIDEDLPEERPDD

[16] = biological target: T7, Adenosine receptor A3 (Mus musculus) (UniProt Q61618); assay: Agonist activity at recombinant mouse A3AR expressed in HEK293 cells assessed as inhibition of forskolin-stimulated cAMP accumulation at 10 uM after 15 mins relative to adenosine-5'-N-ethyluronamide; type: functional, cell-based
T7 sequence (whole entry): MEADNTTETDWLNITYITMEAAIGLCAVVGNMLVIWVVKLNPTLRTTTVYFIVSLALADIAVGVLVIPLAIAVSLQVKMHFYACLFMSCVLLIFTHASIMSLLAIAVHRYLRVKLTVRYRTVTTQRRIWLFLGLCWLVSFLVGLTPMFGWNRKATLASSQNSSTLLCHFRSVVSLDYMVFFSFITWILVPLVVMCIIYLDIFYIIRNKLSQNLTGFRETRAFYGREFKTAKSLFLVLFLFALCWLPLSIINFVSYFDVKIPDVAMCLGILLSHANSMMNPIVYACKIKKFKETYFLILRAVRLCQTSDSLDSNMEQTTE

Adenosine receptor A3 = biological target: T8, Adenosine receptor A3 (Homo sapiens, UniProt P0DMS8); assay: Displacement of [125l]N 6-(4-amino-3-iodobenzyl)adenosine-5'-N-methyluronamide from recombinant human A3AR expressed in CHO cell membranes after 60 mins by gamma counting method
T8 sequence (P0DMS8 whole entry): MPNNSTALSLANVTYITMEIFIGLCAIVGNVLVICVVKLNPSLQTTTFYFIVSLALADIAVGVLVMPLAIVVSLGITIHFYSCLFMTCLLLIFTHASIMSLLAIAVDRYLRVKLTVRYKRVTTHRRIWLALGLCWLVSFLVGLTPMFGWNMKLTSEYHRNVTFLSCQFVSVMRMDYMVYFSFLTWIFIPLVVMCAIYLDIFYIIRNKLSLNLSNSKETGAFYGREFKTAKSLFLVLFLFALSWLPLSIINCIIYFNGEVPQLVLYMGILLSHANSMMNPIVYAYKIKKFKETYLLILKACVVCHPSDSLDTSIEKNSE

SMILES | inhibition [1] | inhibition [2] | inhibition [3] | inhibition [4] | inhibition [5] | inhibition [6] | inhibition [7] | inhibition [8] | Ki [9] | Ki [10] | inhibition [11] | inhibition [12] | inhibition [13] | inhibition [14] | Ki [15] | Ki (Adenosine receptor A2a) | Ki (Adenosine receptor A1) | Imax [16] | Ki (Adenosine receptor A3)
Nc1ncnc2c1ncn2[C@@H]1O[C@H](C(=O)NC2CC2)[C@@H](O)[C@H]1O | < 10% | < 50% | < 10% | < 50% | < 50% | < 50% | < 50% | < 50% | > 10000 nM | 1400 nM | < 10% | < 50% | < 50% | < 50% | – | – | – | – | –
OC[C@@]12C[C@@H]1[C@@H](n1cnc3c(N[C@H](C4CCC4)C4CC4)nc(Cl)nc31)[C@H](O)[C@@H]2O | > 50% | < 50% | < 10% | < 50% | < 50% | < 50% | < 50% | < 50% | > 10000 nM | – | – | < 50% | < 50% | < 50% | 298 nM | 2690 nM | 298 nM | – | –
CCNC(=O)[C@H]1O[C@@H](n2cnc3c(N)ncnc32)[C@H](O)[C@@H]1O [NECA] | – | < 50% | – | < 50% | < 50% | < 50% | < 50% | < 50% | > 10000 nM | – | – | < 50% | < 50% | < 50% | – | – | – | 100% | –
CC[C@H](Nc1nc(Cl)nc2c1ncn2[C@H]1[C@H](O)[C@H](O)[C@]2(CO)C[C@H]12)C1CC1 | > 50% | < 50% | < 10% | < 50% | < 50% | < 50% | < 50% | < 50% | > 10000 nM | – | – | < 50% | < 50% | < 50% | 251 nM | 2950 nM | 117 nM | – | –
CCC(CC)Nc1nc(Cl)nc2c1ncn2[C@H]1[C@H](O)[C@H](O)[C@]2(CO)C[C@H]12 | > 50% | < 50% | 12% | < 50% | < 50% | < 50% | < 50% | < 50% | > 10000 nM | – | – | < 50% | < 50% | < 50% | 703 nM | 1750 nM | 112 nM | – | 1200 nM
OC[C@@]12C[C@@H]1[C@@H](n1cnc3c(N[C@@H](C4CCC4)C4CC4)nc(Cl)nc31)[C@H](O)[C@@H]2O | > 50% | < 50% | < 10% | < 50% | < 50% | < 50% | < 50% | < 50% | > 10000 nM | – | – | < 50% | < 50% | < 50% | 270 nM | 3940 nM | 144 nM | – | –
CC[C@@H](Nc1nc(Cl)nc2c1ncn2[C@H]1[C@H](O)[C@H](O)[C@]2(CO)C[C@H]12)C1CC1 | > 50% | < 50% | < 10% | < 50% | < 50% | < 50% | < 50% | < 50% | > 10000 nM | – | – | < 50% | < 50% | < 50% | 371 nM | 1880 nM | 76 nM | – | –
CNc1nc(Cl)nc2c1ncn2[C@H]1[C@H](O)[C@H](O)[C@]2(CO)C[C@H]12 | > 50% | < 50% | < 10% | < 50% | < 50% | < 50% | < 50% | < 50% | > 10000 nM | 2220 nM | – | < 50% | < 50% | < 50% | – | – | – | – | –
